# System: Venturia inaequalis
# Test: not given
# Format: in vivo
# Details: 240 h, 100 ppm
# From the text: Lösungsmittel: 24,5 Gewichtsteile Aceton 24,5 Gewichtsteile Dimethylacetamid Emulgator : 1 Gewichtsteil Alkyl-Aryl-Polyglykolether Zur […] und Emulgator und verdünnt das Konzentrat mit Wasser auf die gewünschte Konzentration. Zur Prüfung auf protektive Wirksamkeit werden junge Pflanzen mit der Wirkstoffzubereitung in der angegebenen Aufwandmenge besprüht. Nach Antrocknen des Spritzbelages werden die Pflanzen mit einer wäßrigen Konidiensuspension des […] Venturia inaequalis inokuliert und verbleiben dann 1 Tag bei ca. 20°C und 100% relativer Luftfeuchtigkeit in einer Inkubations-kabine. Die Pflanzen werden dann im Gewächshaus bei ca. 21°C und einer relativen Luftfeuchtigkeit von ca. 90% aufgestellt. 10 Tage nach der Inokulation erfolgt die Auswertung. Dabei bedeutet 0% ein Wirkungsgrad, der demjenigen der Kontrolle entspricht, während ein Wirkungsgrad von 100% bedeutet, daß kein Befall beobachtet wird.
row,SMILES,Wirkungsgrad
1,"FC(F)CNc1nc(Nc2ccccc2)ncc1Cl [Verbindung 1, 5-Chlor-N^4-(2,2-difluorethyl)-N^2-phenylpyrimidin-2,4-diamin]",≥ 70%
2,"FC(F)(F)CNc1nc(Nc2ccccc2)ncc1Cl [Verbindung 3, 5-Chlor-N^2-phenyl-N^4-(2,2,2-trifluorethyl)pyrimidin-2,4-diamin]",≥ 70%

# System: Fumonisin FB1
# Test: Production of fumonisin FB1 by Fusarium proliferatum (microtiter plate, HPLC-MS/MS)
# Format: cell-based
# Details: 144 h, read-out: pI50 FB1
row,SMILES,IC50
1,"FC(F)CNc1nc(Nc2ccccc2)ncc1Cl [Verbindung 1, 5-Chlor-N^4-(2,2-difluorethyl)-N^2-phenylpyrimidin-2,4-diamin]",3.16 µM
2,"FC(F)(F)CNc1nc(Nc2ccccc2)ncc1Cl [Verbindung 3, 5-Chlor-N^2-phenyl-N^4-(2,2,2-trifluorethyl)pyrimidin-2,4-diamin]",2 µM
3,COc1cccc(Nc2ncc(Cl)c(NCC(F)(F)F)n2)c1 [Verbindung 6],1.58 µM
4,CSc1cccc(Nc2ncc(Cl)c(NCC(F)(F)F)n2)c1 [Verbindung 24],31.6 µM
5,CC(=O)c1cccc(Nc2ncc(Cl)c(NCC(F)(F)F)n2)c1 [Verbindung 29],10 µM
6,CNC(=O)Oc1cccc(Nc2ncc(Cl)c(NCC(F)(F)F)n2)c1 [Verbindung 34],10 µM
7,COC(=O)Nc1cccc(Nc2ncc(Cl)c(NCC(F)(F)F)n2)c1 [Verbindung 35],31.6 µM
8,COc1cccc(Nc2ncc(Cl)c(NCC(F)F)n2)c1 [Verbindung 39],3.16 µM
9,N#CCc1cccc(Nc2ncc(Cl)c(NCC(F)F)n2)c1 [Verbindung 43],1.26 µM
10,Cc1cccc(Nc2ncc(Cl)c(NCC(F)(F)F)n2)c1 [Verbindung 44],1.26 µM
11,Cc1cccc(Nc2ncc(Cl)c(NCC(F)F)n2)c1 [Verbindung 45],1.58 µM

# System: Botrytis cinerea
# Test: not given
# Format: in vivo
# Details: 48 h, 250 ppm
# From the text: Lösungsmittel: 24,5 Gewichtsteile Aceton 24,5 Gewichtsteile Dimethylacetamid Emulgator : 1 Gewichtsteil Alkyl-Aryl-Polyglykolether Zur […] und Emulgator und verdünnt das Konzentrat mit Wasser auf die gewünschte Konzentration. Zur Prüfung auf protektive Wirksamkeit werden junge Pflanzen mit der Wirkstoffzubereitung in der angegebenen Aufwandmenge besprüht. Nach Antrocknen des Spritzbelages werden auf jedes Blatt 2 […] Botrytis cinerea […]. Die inokulierten Pflanzen werden in einer abgedunkelten Kammer bei ca. 20°C und 100% relativer Luftfeuchtigkeit aufgestellt. 2 Tage nach der Inokulation wird die Größe der Befallsflecken auf den Blä[…]. Dabei bedeutet 0% ein Wirkungsgrad, der demjenigen der Kontrolle entspricht, während ein Wirkungsgrad von 100% bedeutet, daß kein Befall beobachtet wird.
row,SMILES,Wirkungsgrad
1,N#CCc1cccc(Nc2ncc(Cl)c(NCC(F)F)n2)c1 [Verbindung 43],≥ 70%

# System: Pyricularia oryzae
# Test: not given
# Format: in vivo
# Details: 250ppm active compound; rice, protective; evaluation 7 days after inoculation
row,SMILES,Wirkungsgrad
1,N#CCc1cccc(Nc2ncc(Cl)c(NCC(F)F)n2)c1 [Verbindung 43],≥ 80%

# System: Fusarium nivale (var.majus)
# Test: not given
# Format: in vivo
# Details: 120 h, 1000 ppm
# From the text: […]-Dimethylacetamid Emulgator: 1 Gewichtsteil Alkylarylpolyglykolether Zur […] und Emulgator und verdünnt das Konzentrat mit Wasser auf die gewünschte Konzentration. Zur Prüfung auf protektive Wirksamkeit besprüht man junge Pflanzen mit der Wirkstoffzubereitung in der angegebenen Aufwandmenge. Nach Antrocknen des Spritzbelages werden die Pflanzen mit Sporen mit einer Sporensuspension von Fusarium nivale (var.majus) besprüht. Die Pflanzen werden in einer Gewächshauskammer unter […] Inkubationshaube bei 10°C und 100 % relativer Luftfeuchtigkeit gestellt. 5 Tage nach der Inokulation erfolgt die Auswertung. Dabei bedeutet 0 % ein Wirkungsgrad, der demjenigen der Kontrolle entspricht, während ein Wirkungsgrad von 100 % bedeutet, dass kein Befall beobachtet wird.
row,SMILES,Wirkungsgrad
1,"FC(F)CNc1nc(Nc2ccccc2)ncc1Cl [Verbindung 1, 5-Chlor-N^4-(2,2-difluorethyl)-N^2-phenylpyrimidin-2,4-diamin]",≥ 70%
2,"FC(F)(F)CNc1nc(Nc2ccccc2)ncc1Cl [Verbindung 3, 5-Chlor-N^2-phenyl-N^4-(2,2,2-trifluorethyl)pyrimidin-2,4-diamin]",≥ 70%
3,CSc1cccc(Nc2ncc(Cl)c(NCC(F)(F)F)n2)c1 [Verbindung 24],≥ 70%
4,CC(=O)c1cccc(Nc2ncc(Cl)c(NCC(F)(F)F)n2)c1 [Verbindung 29],≥ 70%

# System: Alternaria solani
# Test: Alternaria test (tomato) / protective
# Format: in vivo
# Details: 500ppm active compound; tomato, protective; evaluation 7 days after inoculation
row,SMILES,Wirkungsgrad
1,O=Cc1cccc(Nc2ncc(Cl)c(NCC(F)(F)F)n2)c1 [Verbindung 46],≥ 70%

# Same assay, conditions: 168 h, 500 ppm
row,SMILES,Wirkungsgrad
1,"FC(F)CNc1nc(Nc2ccccc2)ncc1Cl [Verbindung 1, 5-Chlor-N^4-(2,2-difluorethyl)-N^2-phenylpyrimidin-2,4-diamin]",≥ 70%
2,N#Cc1cccc(Nc2ncc(Cl)c(NCC(F)(F)F)n2)c1 [Verbindung 4],≥ 70%
3,CCN(C(C)=O)c1ccc(Nc2ncc(Cl)c(NCC(F)(F)F)n2)cc1 [Verbindung 15],≥ 70%
4,CC(=O)N(C)c1ccc(Nc2ncc(Cl)c(NCC(F)(F)F)n2)cc1 [Verbindung 16],≥ 70%
5,CC(C)(C)C(=O)Cc1ccc(Nc2ncc(Cl)c(NCC(F)(F)F)n2)cc1 [Verbindung 27],≥ 70%
6,N#CCc1cccc(Nc2ncc(Cl)c(NCC(F)F)n2)c1 [Verbindung 43],≥ 70%
7,CN(C)C(=O)c1ccc(Nc2ncc(Cl)c(NCC(F)(F)F)n2)cc1 [Verbindung 48],≥ 70%

# System: Fusarium proliferatum
# Test: microbe, parasite or virus in culture
# Format: cell-based
# Details: 144 h, read-out: pI50 Wachstum
row,SMILES,IC50
1,"FC(F)CNc1nc(Nc2ccccc2)ncc1Cl [Verbindung 1, 5-Chlor-N^4-(2,2-difluorethyl)-N^2-phenylpyrimidin-2,4-diamin]",7.94 µM
2,"FC(F)(F)CNc1nc(Nc2ccccc2)ncc1Cl [Verbindung 3, 5-Chlor-N^2-phenyl-N^4-(2,2,2-trifluorethyl)pyrimidin-2,4-diamin]",12.6 µM
3,COc1cccc(Nc2ncc(Cl)c(NCC(F)(F)F)n2)c1 [Verbindung 6],3.16 µM
4,CSc1cccc(Nc2ncc(Cl)c(NCC(F)(F)F)n2)c1 [Verbindung 24],> 50.1 µM
5,CC(=O)c1cccc(Nc2ncc(Cl)c(NCC(F)(F)F)n2)c1 [Verbindung 29],> 50.1 µM
6,CNC(=O)Oc1cccc(Nc2ncc(Cl)c(NCC(F)(F)F)n2)c1 [Verbindung 34],> 50.1 µM
7,COC(=O)Nc1cccc(Nc2ncc(Cl)c(NCC(F)(F)F)n2)c1 [Verbindung 35],39.8 µM
8,COc1cccc(Nc2ncc(Cl)c(NCC(F)F)n2)c1 [Verbindung 39],10 µM
9,N#CCc1cccc(Nc2ncc(Cl)c(NCC(F)F)n2)c1 [Verbindung 43],6.31 µM
10,Cc1cccc(Nc2ncc(Cl)c(NCC(F)(F)F)n2)c1 [Verbindung 44],20 µM
11,Cc1cccc(Nc2ncc(Cl)c(NCC(F)F)n2)c1 [Verbindung 45],5.01 µM

# System: Cochliobolus miyabeanus
# Test: Cochliobolus test (rice) / protective
# Format: in vivo
# Details: 250ppm active compound, evaluation 4 days after inoculation
row,SMILES,Wirkungsgrad
1,N#CCc1cccc(Nc2ncc(Cl)c(NCC(F)F)n2)c1 [Verbindung 43],≥ 80%

# System: Gibberella zeae
# Test: not given
# Details: in vivo
row,SMILES,Wirkungsgrad
1,CNC(=O)Oc1cccc(Nc2ncc(Cl)c(NCC(F)(F)F)n2)c1 [Verbindung 34],≥ 80%

# System: Puccinia recondita
# Test: Puccinia test (wheat) / protective
# Format: in vivo
# Details: 500 ppm
row,SMILES,Wirkungsgrad
1,"FC(F)(F)CNc1nc(Nc2ccccc2)ncc1Cl [Verbindung 3, 5-Chlor-N^2-phenyl-N^4-(2,2,2-trifluorethyl)pyrimidin-2,4-diamin]",≥ 70%
2,COc1cc(Nc2ncc(Cl)c(NCC(F)(F)F)n2)ccc1NC(C)=O [Verbindung 5],≥ 70%
3,COc1cccc(Nc2ncc(Cl)c(NCC(F)(F)F)n2)c1 [Verbindung 6],≥ 70%
4,CC(=O)Nc1ccc(Nc2ncc(Cl)c(NCC(F)(F)F)n2)cc1 [Verbindung 13],≥ 70%
5,CCN(C(C)=O)c1ccc(Nc2ncc(Cl)c(NCC(F)(F)F)n2)cc1 [Verbindung 15],≥ 70%
6,CC(=O)N(C)c1ccc(Nc2ncc(Cl)c(NCC(F)(F)F)n2)cc1 [Verbindung 16],≥ 70%
7,CC(=O)Nc1cccc(Nc2ncc(Cl)c(NCC(F)(F)F)n2)c1 [Verbindung 19],≥ 70%
8,CC(C)(C)C(=O)Nc1cccc(Nc2ncc(Cl)c(NCC(F)(F)F)n2)c1 [Verbindung 21],≥ 70%
9,CNC(=O)c1cccc(Nc2ncc(Cl)c(NCC(F)(F)F)n2)c1 [Verbindung 23],≥ 70%
10,CSc1cccc(Nc2ncc(Cl)c(NCC(F)(F)F)n2)c1 [Verbindung 24],≥ 70%
11,O=S(=O)(c1cccc(Nc2ncc(Cl)c(NCC(F)(F)F)n2)c1)N1CCCCC1 [Verbindung 26],≥ 70%
12,CC(=O)c1cccc(Nc2ncc(Cl)c(NCC(F)(F)F)n2)c1 [Verbindung 29],≥ 70%
13,COC(=O)Nc1cccc(Nc2ncc(Cl)c(NCC(F)(F)F)n2)c1 [Verbindung 35],≥ 70%
14,CC(C)(CF)C(=O)Nc1cccc(Nc2ncc(Cl)c(NCC(F)(F)F)n2)c1 [Verbindung 37],≥ 70%
15,N#CCc1cccc(Nc2ncc(Cl)c(NCC(F)F)n2)c1 [Verbindung 43],≥ 70%
16,Cc1cccc(Nc2ncc(Cl)c(NCC(F)F)n2)c1 [Verbindung 45],≥ 70%

# Same assay, conditions: 500ppm active compound; wheat, protective; evaluation 7-9 days after inoculation
row,SMILES,Wirkungsgrad
1,O=Cc1cccc(Nc2ncc(Cl)c(NCC(F)(F)F)n2)c1 [Verbindung 46],≥ 70%

# System: not listed separately
# Test: physchem
# Details: pH 2.3
row,SMILES,chromatographic logP
1,"FC(F)CNc1nc(Nc2ccccc2)ncc1Cl [Verbindung 1, 5-Chlor-N^4-(2,2-difluorethyl)-N^2-phenylpyrimidin-2,4-diamin]",1.89
2,"FC(F)(F)CNc1nc(Nc2ccccc2)ncc1Cl [Verbindung 3, 5-Chlor-N^2-phenyl-N^4-(2,2,2-trifluorethyl)pyrimidin-2,4-diamin]",2.56

# Same assay, conditions: pH 2.7
row,SMILES,chromatographic logP
1,N#Cc1cccc(Nc2ncc(Cl)c(NCC(F)(F)F)n2)c1 [Verbindung 4],2.67
2,COc1cc(Nc2ncc(Cl)c(NCC(F)(F)F)n2)ccc1NC(C)=O [Verbindung 5],1.75
3,COc1cccc(Nc2ncc(Cl)c(NCC(F)(F)F)n2)c1 [Verbindung 6],2.55
4,CC(=O)Nc1ccc(Nc2ncc(Cl)c(NCC(F)(F)F)n2)cc1 [Verbindung 13],1.54
5,CCN(C(C)=O)c1ccc(Nc2ncc(Cl)c(NCC(F)(F)F)n2)cc1 [Verbindung 15],2.13
6,CC(=O)N(C)c1ccc(Nc2ncc(Cl)c(NCC(F)(F)F)n2)cc1 [Verbindung 16],1.92
7,CC(=O)Nc1cccc(Nc2ncc(Cl)c(NCC(F)(F)F)n2)c1 [Verbindung 19],1.66
8,CC(C)(C)C(=O)Nc1cccc(Nc2ncc(Cl)c(NCC(F)(F)F)n2)c1 [Verbindung 21],2.51
9,CNC(=O)c1cccc(Nc2ncc(Cl)c(NCC(F)(F)F)n2)c1 [Verbindung 23],1.66
10,CSc1cccc(Nc2ncc(Cl)c(NCC(F)(F)F)n2)c1 [Verbindung 24],3.04
11,O=S(=O)(c1cccc(Nc2ncc(Cl)c(NCC(F)(F)F)n2)c1)N1CCCCC1 [Verbindung 26],2.58
12,CC(C)(C)C(=O)Cc1ccc(Nc2ncc(Cl)c(NCC(F)(F)F)n2)cc1 [Verbindung 27],3.17
13,CC(=O)c1cccc(Nc2ncc(Cl)c(NCC(F)(F)F)n2)c1 [Verbindung 29],2.39
14,COC(=O)Nc1cccc(Nc2ncc(Cl)c(NCC(F)(F)F)n2)c1 [Verbindung 35],2.06
15,CC(C)(CF)C(=O)Nc1cccc(Nc2ncc(Cl)c(NCC(F)(F)F)n2)c1 [Verbindung 37],2.42
16,COc1cccc(Nc2ncc(Cl)c(NCC(F)F)n2)c1 [Verbindung 39],1.96
17,N#CCc1cccc(Nc2ncc(Cl)c(NCC(F)F)n2)c1 [Verbindung 43],1.89
18,Cc1cccc(Nc2ncc(Cl)c(NCC(F)(F)F)n2)c1 [Verbindung 44],2.88
19,Cc1cccc(Nc2ncc(Cl)c(NCC(F)F)n2)c1 [Verbindung 45],2.27
20,CN(C)C(=O)c1ccc(Nc2ncc(Cl)c(NCC(F)(F)F)n2)cc1 [Verbindung 48],1.93

# Same assay, conditions: pH 7.8
row,SMILES,chromatographic logP
1,"FC(F)(F)CNc1nc(Nc2ccccc2)ncc1Cl [Verbindung 3, 5-Chlor-N^2-phenyl-N^4-(2,2,2-trifluorethyl)pyrimidin-2,4-diamin]",3.09
2,O=Cc1cccc(Nc2ncc(Cl)c(NCC(F)(F)F)n2)c1 [Verbindung 46],2.67

# Reference: patent EP2161259A1, “4-Haloalkyl substituted Diaminopyrimidine” (Bayer CropScience AG, priority 2008, dated 2010)
